IC50 data for 24 compounds are collected here from patent publication US11427552B2, “Heterocyclic compounds useful in the treatment of disease” (EPIGEN BIOSCIENCES, INC., priority 2013, dated 2022).

pIC50: −log10 of the molar value. Where only a bound is given, the exact number is not on record here.

In the test the target is T1, LPA1R (Homo sapiens, UniProt Q92633).
T1 construct: host or cells: LPA1R expressing cells (Millipore, GPCR Profiler)
T1 sequence (Q92633 whole entry): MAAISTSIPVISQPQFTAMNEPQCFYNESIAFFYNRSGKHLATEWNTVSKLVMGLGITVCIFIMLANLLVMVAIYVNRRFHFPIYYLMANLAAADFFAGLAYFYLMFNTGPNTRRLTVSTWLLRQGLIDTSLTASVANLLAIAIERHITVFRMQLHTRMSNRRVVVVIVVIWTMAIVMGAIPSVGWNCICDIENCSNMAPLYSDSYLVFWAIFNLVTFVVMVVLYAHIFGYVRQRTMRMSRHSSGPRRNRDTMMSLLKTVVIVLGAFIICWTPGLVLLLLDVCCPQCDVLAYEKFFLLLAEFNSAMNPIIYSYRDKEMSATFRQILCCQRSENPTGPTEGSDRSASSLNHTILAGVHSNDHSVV
The experiment in a line: LPA1R Ca2+ flux functional assay (antagonist mode, FLIPR). It is filed as cell-based. As to conditions: inhibition of LPA-stimulated Ca2+ flux, LPA at EC80, LPA1R expressing cells (Millipore); read-out: LPA1 R Antagonist Activity. As to the method: Inhibition of LPA-stimulated Ca^2+ flux was used to assess compound potency using FLIPR technology in a 96 well plate format. The assay buffer used was a modified Hanks Balanced Salt Solution (HBSS) where HBSS was supplemented to contain 20 mM HEPES and 2.5 mM Probenecid at pH7.4 (Millipore, GPCR Profiler®). LPA1R expressing cells (Millipore) were plated and prepared 24 hours prior to assay of test articles. Ca^2+ ion flux was assessed from fluorescence of a Fluo-based No Wash Ca^2+ dye. Antagonist data are generated from plates with LPA concentrations sufficient to generate 80% efficacy [EC80]. Percentage inhibition was calculated from a reduction of efficacy according to concentration of compounds of Formula I-VI. For dose responses the inhibition data was used to calculate compound IC50. The agonist assay was conducted on a FLIPR^TETRA instrument where the test compound(s), vehicle controls, and reference agonist were added to the assay plate after a fluorescence baseline was established. The agonist assay was a total of 180 seconds and was used to assess each compound's ability to activate each GPCR assayed. Upon completion of the agonist assay, the assay plate was removed from the FLIPR^TETRA and incubated at 25° C. for seven (7) minutes. After the incubation period, the assay plate was placed back in the FLIPR^TETRA and the antagonist assay was initiated. Using EC80 potency values determined during the agonist assay, all pre-incubated sample compound wells were challenged with EC80 concentration of reference agonist after establishment of a fluorescence baseline. The antagonist assay was conducted using the same assay plate that was used for the agonist assay. The antagonist assay was conducted on a FLIPR^TETRA instrument where 9 vehicle controls and EC80 concentration of reference agonist were added to appropriate wells. The antagonist assay was a total of 180 seconds and was used to assess each compound's ability to inhibit each GPCR assayed. All assay plate data were subjected to appropriate baseline corrections. After baseline corrections were applied, maximum fluorescence values were exported and data processed to calculate percentage activation (relative to Emax reference agonist and vehicle control values), percentage inhibition (relative to EC80 and vehicle control values), and additional statistical values (i.e. Z′, percentage variation between replicate data values) to assess the quality of each plate. Where assay plate data were rejected, additional experiments were conducted. All dose response curves were generated using GraphPad Prism. The curves were fit by utilizing “Sigmoidal Dose Response (Variable Slope)” equation where the bottom parameter was fixed to “0.” Where appropriate, the top parameter was fixed to “100” to better predict potency values when a full curve was not generated by the concentrations assayed.
In the case of `Cc1noc(-c2ccc(C(=O)N[C@H](C(=O)O)c3ccccc3)cc2)c1NC(=O)OC(C)c1ccccc1Cl` (mixture of isomers) [Example 3, 2-(S)-(4-{4-[(R,S)-1-(2-Chloro-phenyl)-ethoxycarbonylamino]-3-methyl-isoxazol-5-yl}-benzoylamino) Phenyl Acetic Acid], the pIC50 was below 4.30.

On to `Cc1noc(-c2ccc(COC(CC3CC3)C(=O)O)cc2)c1NC(=O)O[C@H](C)c1ccccc1` (mixture of isomers) [Example 44, (RS)-3-Cyclopropyl-2-{4-[3-methyl-4-((R)-1-phenyl-ethoxycarbonylamino)-isoxazol-5-yl]-benzyloxy}-propionic Acid], for which the pIC50 is above 6.52.

Consider `Cc1noc(-c2ccc(COC(Cc3ccc(Cl)cc3)C(=O)O)cc2)c1OC(=O)O[C@H](C)c1ccccc1` (mixture of isomers) [Example 45, (RS)-3-(4-Chloro-phenyl)-2-{4-[3-methyl-4-((R)-1-phenyl-ethoxycarbonyloxy)-isoxazol-5-yl]-benzyloxy}-propionic Acid], for which the pIC50 is above 6.52.

For the compound `Cc1noc(-c2ccc(C(=O)NC3(C(=O)O)CC3)cc2)c1NC(=O)OC(C)c1ccccc1Cl` (stereo not drawn) [Example 1, 1-(4-{4-[1-(2-Chloro-phenyl)-ethoxycarbonylamino]-3-methyl-isoxazol-5-yl}-benzoylamino)-cyclopropanecarboxylic Acid], the pIC50 is 4.30 to 6.00.

With `Cc1noc(-c2ccc(C(=O)NC3(C(=O)O)Cc4ccccc4C3)cc2)c1NC(=O)OC(C)c1ccccc1Cl` (stereo not drawn) [Example 2, 2-(4-{4-[1-(2-Chloro-phenyl)-ethoxycarbonylamino]-3-methyl-isoxazol-5-yl}-benzoylamino)-indan-2-carboxylic Acid], the pIC50 was 4.30 to 6.00.

For `Cc1noc(-c2ccc(C(=O)NC(Cc3ccccc3)C(=O)O)cc2)c1NC(=O)OC(C)c1ccccc1Cl` [Example 4, 2-(R)-(4-{4-[(R,S)-1-(2-Chloro-phenyl)-ethoxycarbonylamino]-3-methyl-isoxazol-5-yl}-benzoylamino) Phenyl Propanoic Acid], the pIC50 was 6.00 to 6.52.

Consider `Cc1noc(-c2ccc(C(=O)N[C@H](Cc3ccccc3)C(=O)O)cc2)c1NC(=O)O[C@H](C)c1ccccc1` [Example 5, 2(R)-[[4-[3-methyl-4-((R)-1-phenylethoxycarbonylamino)isoxazol-5-yl]benzoyl]amino]-3-phenyl-propanoic Acid], for which the pIC50 was above 6.52.

On to `Cc1noc(-c2ccc(C(=O)N[C@@H](Cc3ccccc3)C(=O)O)cc2)c1NC(=O)O[C@H](C)c1ccccc1` [Example 6, 2(S)-[[4-[3-methyl-4-((R)-1-phenylethoxycarbonylamino)isoxazol-5-yl]benzoyl]amino]-3-phenyl-propanoic Acid], for which the pIC50 is below 4.30.

Take `Cc1nn(C)c(-c2ccc(C(=O)N[C@H](Cc3ccccc3)C(=O)O)cc2)c1NC(=O)O[C@H](C)c1ccccc1` [Example 7, (R)-2-[[4-[2,5-dimethyl-4-((R)-1-phenylethoxycarbonylamino)pyrazol-3-yl]benzoyl]amino]-3-phenyl-propanoic Acid]: the pIC50 was below 4.30.

Regarding `Cc1c(NC(=O)O[C@H](C)c2ccccc2)c(-c2ccc(C(=O)N[C@H](Cc3ccccc3)C(=O)O)cc2)nn1C` [Example 8, (R)-2-[[4-[1,5-dimethyl-4-((R)-1-phenylethoxycarbonylamino)pyrazol-3-yl]benzoyl]amino]-3-phenyl-propanoic Acid], the pIC50 is below 4.30.

On to `Cc1nn(C)c(-c2ccc(C(=O)N[C@H](Cc3ccc(F)cc3)C(=O)O)cc2)c1NC(=O)O[C@H](C)c1ccccc1` [Example 9, (R)-2-[[4-[2,5-dimethyl-4-((R)-1-phenylethoxycarbonylamino)pyrazol-3-yl]benzoyl]amino]-3-(4-fluorophenyl)propanoic Acid], for which the pIC50 was below 4.30.

With `Cc1c(NC(=O)O[C@H](C)c2ccccc2)c(-c2ccc(C(=O)N[C@H](Cc3ccc(F)cc3)C(=O)O)cc2)nn1C` [Example 10, (R)-2-[[4-[1,5-dimethyl-4-((R)-1-phenylethoxycarbonylamino)pyrazol-3-yl]benzoyl]amino]-3-(4-fluorophenyl)propanoic acid], the pIC50 is below 4.30.

Consider `Cc1nn(C)c(-c2ccc(C(=O)N[C@H](Cc3ccc(Br)cc3)C(=O)O)cc2)c1NC(=O)O[C@H](C)c1ccccc1` [Example 11, (R)-3-(4-bromophenyl)-2-[[4-[2,5-dimethyl-4-((R)-1-phenylethoxycarbonyl-amino)pyrazol-3-yl]benzoyl]amino]propanoic Acid], for which the pIC50 was below 4.30.

For the compound `Cc1nn(C)c(-c2ccc(C(=O)N[C@H](Cc3ccc(Cl)cc3)C(=O)O)cc2)c1NC(=O)O[C@H](C)c1ccccc1` [Example 13, (R)-3-(4-chlorophenyl)-2-[[4-[2,5-dimethyl-4-((R)-1-phenylethoxycarbonyl-amino)pyrazol-3-yl]benzoyl]amino]propanoic Acid], the pIC50 was below 4.30.

With `Cc1c(NC(=O)O[C@H](C)c2ccccc2)c(-c2ccc(C(=O)N[C@H](Cc3ccc(Cl)cc3)C(=O)O)cc2)nn1C` [Example 14, (R)-3-(4-chlorophenyl)-2-[[4-[1,5-dimethyl-4-((R)-1-phenylethoxycarbonyl-amino)pyrazol-3-yl]benzoyl]amino]propanoic Acid], the pIC50 is below 4.30.

Regarding `Cc1nn(C)c(-c2ccc(C(=O)N[C@H](Cc3ccc(F)c(F)c3)C(=O)O)cc2)c1NC(=O)O[C@H](C)c1ccccc1` [Example 15, (R)-3-(3,4-difluorophenyl)-2-[[4-[2,5-dimethyl-4-((R)-1-phenylethoxycarbonyl-amino)pyrazol-3-yl]benzoyl]amino]propanoic Acid], the pIC50 is below 4.30.

With `Cc1c(NC(=O)O[C@H](C)c2ccccc2)c(-c2ccc(C(=O)N[C@H](Cc3ccc(F)c(F)c3)C(=O)O)cc2)nn1C` [Example 16, (R)-3-(3,4-difluorophenyl)-2-[[4-[1,5-dimethyl-4-((R)-1-phenylethoxycarbonyl-amino)pyrazol-3-yl]benzoyl]amino]propanoic Acid], the pIC50 was below 4.30.

As for `Cc1noc(-c2ccc(C(=O)N[C@H](CC3CC3)C(=O)O)cc2)c1NC(=O)O[C@H](C)c1ccccc1Cl` [Example 17, (R)-2-(4-{4-[(R)-1-(2-chloro-phenyl)-ethoxycarbonylamino]-3-methyl-isoxazol-5-yl}-benzoylamino)-3-cyclopropyl-propionic Acid], the pIC50 was above 6.52.

With `Cc1noc(-c2ccc(C(=O)N[C@H](Cc3ccccc3)C(=O)O)cc2)c1NC(=O)O[C@@H](C)c1ccccc1` [Example 18, (R)-2-{4-[3-Methyl-4-((S)-1-phenyl-ethoxycarbonylamino)-isoxazol-5-yl]-benzoylamino}-3-phenyl-propionic Acid], the pIC50 is below 4.30.

As for `Cc1noc(-c2ccc(C(=O)N[C@@H](Cc3ccccc3)C(=O)O)cc2)c1NC(=O)O[C@@H](C)c1ccccc1` [Example 19, (S)-2-{4-[3-Methyl-4-((S)-1-phenyl-ethoxycarbonylamino)-isoxazol-5-yl]-benzoylamino}-3-phenyl-propionic Acid], the pIC50 is below 4.30.

On to `Cc1noc(-c2ccc(C(=O)N[C@H](Cc3ccc(F)cc3)C(=O)O)cc2)c1NC(=O)O[C@H](C)c1ccccc1Cl` [Example 21, (R)-2-(4-{4-[(R)-1-(2-Chloro-phenyl)-ethoxycarbonylamino]-3-methyl-isoxazol-5-yl}-benzoylamino)-3-(4-fluoro-phenyl)-propionic Acid], for which the pIC50 is above 6.52.

In the case of `Cc1noc(-c2ccc(C(=O)N[C@H](Cc3ccc(Cl)cc3)C(=O)O)cc2)c1NC(=O)O[C@H](C)c1ccccc1Cl` [Example 22, (R)-3-(4-Chloro-phenyl)-2-(4-{4-[(R)-1-(2-chloro-phenyl)-ethoxycarbonylamino]-3-methyl-isoxazol-5-yl}-benzoylamino)-propionic Acid], the pIC50 was above 6.52.

On to `Cc1noc(-c2ccc(C(=O)N[C@H](Cc3ccc(F)c(F)c3)C(=O)O)cc2)c1NC(=O)O[C@H](C)c1ccccc1Cl` [Example 23, (R)-2-(4-{4-[(R)-1-(2-Chloro-phenyl)-ethoxycarbonylamino]-3-methyl-isoxazol-5-yl}-benzoylamino)-3-(3,4-difluoro-phenyl)-propionic Acid], for which the pIC50 was above 6.52.

For `Cc1noc(-c2ccc(C(=O)N[C@H](Cc3ccccc3Cl)C(=O)O)cc2)c1NC(=O)O[C@H](C)c1ccccc1Cl` [Example 24, (R)-3-(2-Chloro-phenyl)-2-(4-{4-[(R)-1-(2-chloro-phenyl)-ethoxycarbonylamino]-3-methyl-isoxazol-5-yl}-benzoylamino)-propionic Acid], the pIC50 is above 6.52.
